Measurements as given in ChEMBL document CHEMBL3997771 (Eur J Med Chem, 2017).
Active and inactive are the calls of the source. No cut-off for these calls is given here.

Columns and labels:
[1] = test system: HT-29; test: Cytotoxicity against human HT-29 cells assessed as growth inhibition after 72 hrs by MTT assay; assay type: functional, cell-based; conditions: HT-29, 72 h
[2] = test system: MCF7; test: Cytotoxicity against human MCF7 cells assessed as growth inhibition after 72 hrs by MTT assay; assay type: functional, cell-based; conditions: MCF7, 72 h
[3] = Selectivity index, ratio of IC50 for HEK293 cells to IC50 for human MCF7 cells; assay type: functional
[4] = Selectivity index, ratio of IC50 for HEK293 cells to IC50 for human HT-29 cells; assay type: functional
[5] = test system: HEK293; test: Cytotoxicity against HEK293 cells assessed as growth inhibition after 72 hrs by MTT assay; assay type: cell-based; conditions: Homo sapiens, HEK293, 72 h
[6] = species: Ovis aries; test: Induction of abnormal lamb brain tubulin polymer formation at 50 uM after 10 mins by turbidimetry
[7] = species: Ovis aries; test: Inhibition of lamb brain tubulin self assembly assessed as decrease in microtubule formation at 10 uM after 10 mins by turbidimetry/spectrometry
[8] = Inhibition of lamb brain tubulin self assembly assessed as decrease in microtubule formation after 10 mins by turbidimetry/spectrometry; design: species or system Ovis aries
[9] = test system: A549; test: Cytotoxicity against human A549 cells assessed as growth inhibition after 72 hrs by MTT assay; assay type: functional, cell-based; conditions: A549, 72 h
[10] = test system: A549; test: Induction of microtubule depolymerization in human A549 cells at 100 nM after 4 hrs by immunofluorescence microscopic method; assay type: cell-based
[11] = Selectivity index, ratio of IC50 for HEK293 cells to IC50 for human A549 cells; assay type: functional
[12] = species: Ovis aries; test: Binding affinity to lamb brain tubulin after 15 mins by fluorimetric titration method
[13] = species: Ovis aries; test: Induction of abnormal lamb brain tubulin polymer formation at 50 uM by uranyl acetate staining-based transmission electron microscopy
[14] = species: Ovis aries; test: Induction of abnormal lamb brain tubulin polymer formation at 10 uM after 10 mins by turbidimetry
[15] = test system: A549; test: Cell cycle arrest in human A549 cells assessed as accumulation at G2/M phase at IC50 after 24 hrs by propidium iodide staining-based flow cytometric method; assay type: functional
[16] = species: Ovis aries; test: Inhibition of lamb brain tubulin self assembly assessed as decrease in microtubule formation at 0.1 uM by uranyl acetate staining-based transmission electron microscopy
[17] = species: Ovis aries; test: Binding affinity to lamb brain tubulin at 10 uM by fluorimetric titration method
[18] = species: Ovis aries; test: Binding affinity to lamb brain tubulin-colchicine complex at 20 uM by fluorimetric titration method

With `CCCC(=O)N[C@H]1CCc2cc(OC)c(OC)c(OC)c2-c2ccc(OC)c(=O)cc21` the IC50 [1] was 10 nM, the IC50 [2] was 13 nM and the “Ratio IC50” value [3] was 1. For the same compound, the “Ratio IC50” value [4] was 1.4 and the IC50 [5] was 13.5 nM.
In the case of `CCCCCC(=O)N[C@H]1CCc2cc(OC)c(OC)c(OC)c2-c2ccc(OC)c(=O)cc21`, the Activity [6] is reported as “Active”, the IC50 [1] is reported as 3.37 nM and the inhibition [7] is reported as “Active”. For the same compound, the IC50 [2] was 7.02 nM, the IC50 [8] was 2060 nM and the IC50 [9] was 18 nM. The Activity [10] was “Active”, the “Ratio IC50” value [3] was 1 and the “Ratio IC50” value [11] was 0.39. For the same compound, the “Ratio IC50” value [4] was 2.1, the IC50 [5] was 7.1 nM and the Kapp [12] was 6.4 ×10⁴ /M.
In the case of `CCCCCCCCCCCCC(=O)N[C@H]1CCc2cc(OC)c(OC)c(OC)c2-c2ccc(OC)c(=O)cc21`, the IC50 [1] is reported as 7 nM, the IC50 [2] is reported as 6.8 nM and the “Ratio IC50” value [3] is reported as 0.2. For the same compound, the “Ratio IC50” value [4] was 0.2 and the IC50 [5] was 1.5 nM.
In the case of `CCCCCCCCCCCCCCCC(=O)N[C@H]1CCc2cc(OC)c(OC)c(OC)c2-c2ccc(OC)c(=O)cc21`, the IC50 [1] is reported as 184 nM, the IC50 [2] is reported as 720 nM and the “Ratio IC50” value [3] is reported as 0.3. For the same compound, the “Ratio IC50” value [4] was 1.3 and the IC50 [5] was 244 nM.
With `CCCCCCCCCCCCCCCCCC(=O)N[C@H]1CCc2cc(OC)c(OC)c(OC)c2-c2ccc(OC)c(=O)cc21` the IC50 [1] was 1010 nM, the IC50 [2] was 120 nM and the “Ratio IC50” value [3] was 6.4. For the same compound, the “Ratio IC50” value [4] was 0.8 and the IC50 [5] was 766 nM.
With `CCCCCCCCCCCCCC(=O)N[C@H]1CCc2cc(OC)c(OC)c(OC)c2-c2ccc(OC)c(=O)cc21` the IC50 [1] was 36 nM, the IC50 [2] was 20 nM and the “Ratio IC50” value [3] was 2.3. For the same compound, the “Ratio IC50” value [4] was 1.3 and the IC50 [5] was 46 nM.
For `CCCCCCCCCCCC(=O)N[C@H]1CCc2cc(OC)c(OC)c(OC)c2-c2ccc(OC)c(=O)cc21`, the Activity [6] was “Active”, the IC50 [1] was 0.27 nM and the IC50 [2] was 0.53 nM. For the same compound, the IC50 [8] was 1210 nM, the IC50 [9] was 71.9 nM and the Activity [13] was “Active”. The Activity [14] was “Active”, the “Ratio IC50” value [3] was 0.4 and the “Ratio IC50” value [11] was <0.1. For the same compound, the “Ratio IC50” value [4] was 0.9, the IC50 [5] was 0.23 nM and the Kapp [12] was 19 ×10⁴ /M.
In the case of `COc1cc2c(c(OC)c1OC)-c1ccc(OC)c(=O)cc1[C@@H](NC(C)=O)CC2` [COLCHICINE], the IC50 [9] is reported as 14 nM, the Activity [10] is reported as “Active” and the Activity [15] is reported as 8%.
For `CCCCCCCCCC(=O)N[C@H]1CCc2cc(OC)c(OC)c(OC)c2-c2ccc(OC)c(=O)cc21`, the Activity [6] was “Active”, the IC50 [1] was 0.143 nM and the IC50 [2] was 29 nM. The inhibition [16] was “Active”, the IC50 [8] was 700 nM and the IC50 [9] was 25 nM. For the same compound, the Activity [10] was “Active”, the Activity [17] was “Active” and the Activity [18] was “inactive”. For the same compound, the Activity [14] was “Active”, the “Ratio IC50” value [3] was <0.1 and the “Ratio IC50” value [11] was <0.1. For the same compound, the “Ratio IC50” value [4] was 1.7, the IC50 [5] was 0.242 nM and the Kapp [12] was 17.9 ×10⁴ /M.
In the case of `CCCCCCCCCCC(=O)N[C@H]1CCc2cc(OC)c(OC)c(OC)c2-c2ccc(OC)c(=O)cc21`, the Activity [6] is reported as “Active”, the IC50 [1] is reported as 0.041 nM and the IC50 [2] is reported as 1.77 nM. The IC50 [8] was 790 nM, the IC50 [9] was 62 nM and the Activity [14] was “Active”. For the same compound, the “Ratio IC50” value [3] was 0.1, the Activity [15] was 41% and the “Ratio IC50” value [11] was <0.1. For the same compound, the “Ratio IC50” value [4] was 4.2, the IC50 [5] was 0.17 nM and the Kapp [12] was 18.4 ×10⁴ /M.
For `CCCCCCCC(=O)N[C@H]1CCc2cc(OC)c(OC)c(OC)c2-c2ccc(OC)c(=O)cc21`, the Activity [6] was “Active”, the IC50 [1] was 1.69 nM and the inhibition [7] was 80%. It also gave an IC50 [2] of 23 nM, an IC50 [8] of 1080 nM and an IC50 [9] of 133 nM. The Activity [13] was “Active”, the “Ratio IC50” value [3] was 0.8 and the “Ratio IC50” value [11] was 0.14. The “Ratio IC50” value [4] was 11.2, the IC50 [5] was 18.9 nM and the Kapp [12] was 5.2 ×10⁴ /M.
